# From patent publication US11363819B2 (priority 2017, dated 2022)
# Like-named read-outs stand apart in the source and are kept apart here.
# Columns and labels:
# soybean [1] = details: Magnesium chlorate 1600, Aciflurofen 96, combination 1600 + 96 gla/Ha
# Protocol: Field trials were carried out to test the synergy of the combination magnesium chlorate and glufosinate-ammonium which is a protoporphyrinogen oxidase-inhibiting herbicides for desiccation in Soybean. The field trials were carried out at various locations in Brazil during spring. The percentage efficacy was calculated after 1, 4 and 7 days of applications.
# soybean [2] = details: Magnesium chlorate 1600, Aciflurofen 96, combination 1600 + 96 gla/Ha; remark: listed apart in the source
# soybean [3] = type: in vivo; details: Magnesium chlorate 2000, Glufosinate ammonium 300, combination 2000 + 300 gla/Ha
# Protocol: (§1) The expected efficacy of a combination of magnesium chlorate and co-herbicide was calculated using the well-established Colby method.
# (§2) In the Colby method, the expected (or predicted) response of a combination of herbicides is calculated by taking the product of the observed response for each individual component of the combination when applied alone divided by 100 and subtracting this value from the sum of the observed response for each component when applied alone. An unexpected enhancement in efficacy of the combination is then determined by comparing the observed response of the combination to the expected (or predicted) response as calculated from the observed response of each individual component alone. If the observed response of the combination is greater than the expected (or predicted) response, or stated conversely, if the difference between the observed and expected response is greater than zero, then the combination is said to be synergistic or unexpectedly effective. (Colby, S. R., Weeds, 1967 (15), p. 20-22) The Colby method requires only a single dose of each herbicide applied alone and the mixture of both doses.
# (§3) The present inventors have adopted the Coby method to calculate synergy of the combination of defoliants. The % defoliation of individual defoliants was calculated and compared to the expected and observed defoliation efficacy.
# (§4) The defoliation activity of the individual defoliants of the invention and their combinations were evaluated on multiple crops including wheat, soybean and cotton. The trial was carried out in Randomized Complete Block (RCB) method, all field trials were conducted using this method. Each trial were replicated four times and conducted under GEP guidelines. Application volumes were varied for each mixture. Such field trials were carried out at various locations so as to generate independent data, the locations were chosen randomly across Brazil.
# (§5) Field trials were carried out to test the synergy of the combination magnesium chlorate and glufosinate-ammonium which is a ESPS inhibitor herbicide for desiccation in Soybean. The field trials were carried out at various locations in Brazil during spring. The percentage efficacy was calculated after 1, 4 and 7 days of applications. The target crop for defoliation was soybean and the results are recorded in the table below: […]
# Triticum aesti = type: in vivo, wheat; details: Magnesium chlorate 3000, Glufosinate ammonium 1500, combination 3000 + 1500 mL/Ha
# Protocol: as §1
# as §2, with “(Colby, S. R., Weeds, 1967 (15), p. 20-22) The Colby method requires only a single dose of each herbicide applied alone and the mixture of both doses.” left out
# as §3
# The defoliation activity of the individual defoliants of the invention and their combinations were evaluated on multiple crops including wheat, soybean and cotton. […]
# Conyza Canadenesis = type: in vivo
# Protocol: as §1, §2, §4
# Field trials were carried out to test the synergy of the combination magnesium chlorate and glufosinate-ammonium which is a […] herbicides for controlling Conyza Canadenesis. The field trials were carried out at various locations in Brazil. The percentage efficacy was calculated after 3, 14 and 28 days of applications.
# soybean [4] = type: in vivo; details: Magnesium chlorate 1600, Glufosinate ammonium 240, combination 1600 + 240 mL/Ha
# Protocol: as §1, §2, §3, §4
# as §5, with “1 and” for “1,”, “4” for “4 and 7”
# [5] = Magnesium chlorate 1200, Aciflurofen 72, combination 1200 + 72 gla/Ha
# [6] = Magnesium chlorate 1600, Aciflurofen 96, combination 1600 + 96 gla/Ha
# [7] = Magnesium chlorate 2000, Aciflurofen 120, combination 2000 + 120 gla/Ha
# [8] = Magnesium chlorate 1200, Glufosinate 180, combination 1200 + 180 gla/Ha
# [9] = Magnesium chlorate 1600, Glufosinate 240, combination 1600 + 240 gla/Ha
# [10] = Magnesium chlorate 2000, Glufosinate 300, WG formulation 1600 + 300 gla/Ha
# Protocol for Cenchrus echinatus: Field trials were carried out to test the synergy of the combination magnesium chlorate and acifluorfen for controlling Cenchrus echinatus. The field trials were carried out at various locations in Brazil. The percentage efficacy was calculated after 3, 14 and 21 days of applications.
# Protocol for Digitaria insularis: Field trials were carried out to test the synergy of the combination magnesium chlorate and acifluorfen for controlling Digitaria insularis. The field trials were carried out at various locations in Brazil. The percentage efficacy was calculated after 3, 14 and 28 days of applications.
# Protocol for Euphorbia heterophylla: Field trials were carried out to test the synergy of the combination magnesium chlorate and acifluorfen for controlling Euphorbia heterophylla. The field trials were carried out at various locations in Brazil. The percentage efficacy was calculated after 3, 14 and 28 days of applications.
smiles,measurement,setting,value
"O=C(O)c1cc(Oc2ccc(C(F)(F)F)cc2Cl)ccc1[N+](=O)[O-] [Aciflurofen, acifluorfen]",desiccation in soybean at 1 DAA Actual,soybean [1],0%
same,desiccation in soybean at 4 DAA Actual,soybean [1],11.7%
same,% control at 3 DAA Actual,Cenchrus echinatus; [5],13%
same,% control at 3 DAA Actual,Cenchrus echinatus; [6],17.7%
same,% control at 3 DAA Actual,Cenchrus echinatus; [7],18.3%
same,% control at 14 DAA Actual,Cenchrus echinatus; [5],30%
same,% control at 14 DAA Actual,Cenchrus echinatus; [6],50%
same,% control at 14 DAA Actual,Cenchrus echinatus; [7],50%
same,% control at 21 DAA Actual,Cenchrus echinatus; [5],50%
same,% control at 21 DAA Actual,Cenchrus echinatus; [6],74.3%
same,% control at 21 DAA Actual,Cenchrus echinatus; [7],61.7%
same,% control at 3 DAA Actual,Digitaria insularis; [5],7.7%
same,% control at 3 DAA Actual,Digitaria insularis; [6],28.3%
same,% control at 3 DAA Actual,Digitaria insularis; [7],31.7%
same,% control at 14 DAA Actual,Digitaria insularis; [5],38.3%
same,% control at 14 DAA Actual,Digitaria insularis; [6],78.3%
same,% control at 14 DAA Actual,Digitaria insularis; [7],87%
same,% control at 28 DAA Actual,Digitaria insularis; [5],81.7%
same,% control at 28 DAA Actual,Digitaria insularis; [6],98.7%
same,% control at 28 DAA Actual,Digitaria insularis; [7],95.3%
same,desiccation in soybean at 3 DAA Actual,soybean [2],91.0%
same,desiccation in soybean at 14 DAA Actual,soybean [2],10%
same,% control at 3 DAA Actual,Euphorbia heterophylla; [5],45%
same,% control at 3 DAA Actual,Euphorbia heterophylla; [6],56.7%
same,% control at 3 DAA Actual,Euphorbia heterophylla; [7],63.3%
same,% control at 14 DAA Actual,Euphorbia heterophylla; [5],28.3%
same,% control at 14 DAA Actual,Euphorbia heterophylla; [6],35.0%
same,% control at 14 DAA Actual,Euphorbia heterophylla; [7],50%
same,% control at 28 DAA Actual,Euphorbia heterophylla; [5],13.3%
same,% control at 28 DAA Actual,Euphorbia heterophylla; [6],31.7%
same,% control at 28 DAA Actual,Euphorbia heterophylla; [7],33.3%
"CP(=O)(O)CCC(N)C(=O)O (centres unmarked) [Glufosinate ammonium, glufosinate-ammonium]",desiccation in soybean at 1 DAA Actual,soybean [3],0%
same,desiccation in soybean at 4 DAA Actual,soybean [3],30%
same,desiccation in soybean at 7 DAA Actual,soybean [3],63.3%
same,Defoliation in Triticum aesti at 3 DAA Actual,Triticum aesti,78%
same,% control at 3 DAA Actual,Conyza Canadenesis; [8],13.3%
same,% control at 3 DAA Actual,Conyza Canadenesis; [9],13.3%
same,% control at 3 DAA Actual,Conyza Canadenesis; [10],63.3%
same,% control at 14 DAA Actual,Conyza Canadenesis; [8],61.7%
same,% control at 14 DAA Actual,Conyza Canadenesis; [9],90.7%
same,% control at 14 DAA Actual,Conyza Canadenesis; [10],50%
same,% control at 28 DAA Actual,Conyza Canadenesis; [8],58.3%
same,% control at 28 DAA Actual,Conyza Canadenesis; [9],95%
same,% control at 28 DAA Actual,Conyza Canadenesis; [10],33.3%
same,desiccation in soybean at 1 DAA Actual,soybean [4],0%
same,desiccation in soybean at 4 DAA Actual,soybean [4],18.3%
[Mg+2].[O-][Cl+2]([O-])[O-].[O-][Cl+2]([O-])[O-] [Magnesium chlorate],desiccation in soybean at 1 DAA Actual,soybean [3],30%
same,desiccation in soybean at 4 DAA Actual,soybean [3],56.7%
same,desiccation in soybean at 7 DAA Actual,soybean [3],58.3%
same,Defoliation in Triticum aesti at 3 DAA Actual,Triticum aesti,68%
same,desiccation in soybean at 1 DAA Actual,soybean [1],21.7%
same,desiccation in soybean at 4 DAA Actual,soybean [1],53.3%
same,% control at 3 DAA Actual,Conyza Canadenesis; [8],50%
same,% control at 3 DAA Actual,Conyza Canadenesis; [9],55%
same,% control at 3 DAA Actual,Conyza Canadenesis; [10],40%
same,% control at 14 DAA Actual,Conyza Canadenesis; [8],51.7%
same,% control at 14 DAA Actual,Conyza Canadenesis; [9],47.7%
same,% control at 14 DAA Actual,Conyza Canadenesis; [10],33.3%
same,% control at 28 DAA Actual,Conyza Canadenesis; [8],30%
same,% control at 28 DAA Actual,Conyza Canadenesis; [9],35%
same,% control at 28 DAA Actual,Conyza Canadenesis; [10],11.7%
same,% control at 3 DAA Actual,Cenchrus echinatus; [5],10.7%
same,% control at 3 DAA Actual,Cenchrus echinatus; [6],11.3%
same,% control at 3 DAA Actual,Cenchrus echinatus; [7],14%
same,% control at 14 DAA Actual,Cenchrus echinatus; [5],14.3%
same,% control at 14 DAA Actual,Cenchrus echinatus; [6],23.3%
same,% control at 14 DAA Actual,Cenchrus echinatus; [7],30%
same,% control at 21 DAA Actual,Cenchrus echinatus; [5],10.7%
same,% control at 21 DAA Actual,Cenchrus echinatus; [6],12.3%
same,% control at 21 DAA Actual,Cenchrus echinatus; [7],22.7%
same,% control at 3 DAA Actual,Digitaria insularis; [5],6%
same,% control at 3 DAA Actual,Digitaria insularis; [6],6%
same,% control at 3 DAA Actual,Digitaria insularis; [7],7%
same,% control at 14 DAA Actual,Digitaria insularis; [5],9.3%
same,% control at 14 DAA Actual,Digitaria insularis; [6],11.7%
same,% control at 14 DAA Actual,Digitaria insularis; [7],16%
same,% control at 28 DAA Actual,Digitaria insularis; [5],41.7%
same,% control at 28 DAA Actual,Digitaria insularis; [6],48.3%
same,% control at 28 DAA Actual,Digitaria insularis; [7],31.7%
same,desiccation in soybean at 3 DAA Actual,soybean [2],84.3%
same,desiccation in soybean at 14 DAA Actual,soybean [2],60%
same,desiccation in soybean at 1 DAA Actual,soybean [4],21.7%
same,desiccation in soybean at 4 DAA Actual,soybean [4],53.3%
same,% control at 3 DAA Actual,Euphorbia heterophylla; [5],31.7%
same,% control at 3 DAA Actual,Euphorbia heterophylla; [6],33.3%
same,% control at 3 DAA Actual,Euphorbia heterophylla; [7],40%
same,% control at 14 DAA Actual,Euphorbia heterophylla; [5],40%
same,% control at 14 DAA Actual,Euphorbia heterophylla; [6],35%
same,% control at 14 DAA Actual,Euphorbia heterophylla; [7],33.3%
same,% control at 28 DAA Actual,Euphorbia heterophylla; [5],23.3%
same,% control at 28 DAA Actual,Euphorbia heterophylla; [6],16.7%
same,% control at 28 DAA Actual,Euphorbia heterophylla; [7],11.7%
